In paper PMC3280214, “Structure Based Discovery of Small Molecules to Regulate the Activity of Human Insulin Degrading Enzyme” (PLoS ONE, 2012):
Values joined by “and” are separate entries in the source; they are usually repeats but may differ in a detail not shown here. Equal entries are not always repeated.

Experiments:
HeLa cells = test: Cell-based degradation of FITC-insulin; design: species or system human; settings: for increase in magnitude of IDE activity for insulin degradation in HeLa cells: HeLa cells pre-loaded with FITC-insulin, 20 µM; for permeability through cell membrane: inferred from HeLa cell assay
Procedure: It was shown that HeLa cells express insulin receptor, and thus take FITC-labeled insulin inside and degrade it intracellularly, [21], [22]. First, FITC-insulin was added to the culture that contains HeLa cells and incubated for 2 hours in order to allow for sufficient uptake of FITC-insulin by HeLa cells. In order to ensure that FITC-labeled insulin is translocating into the cells through insulin uptake receptor, and that cytoplasmic IDE can degrade FITC- insulin, we conducted live cell imaging of HeLa cells, and recorded fluorescence. At various time points compounds, D3, D6, and D10, were added; and cells were washed with Hank's balanced salt solution (HBSS), the these cells were collected and lysed with appropriate buffer. After centrifugation, cell free extracts were used to measure the change in fluorescence by luminometer. […] Compound D10 increased in vivo proteolysis of FITC- insulin by about 32 fold with HeLa cells compared to control group (Fig. 3A). […] These findings are consistent with the data obtained by in vitro assay, showing enhanced degradation of insulin by D10 and D3 (Fig. 3A). […] This figure further verifies the significant increase in fluorescence observed in the presence of compound D10, which is consistent with our in vitro assay (Fig. 3B).
Cells were cultured at 37°C under a humidified atmosphere of 5% CO2 in medium supplemented with 10% fetal bovine serum. Then, FITC-insulin was added to cell medium and incubated for 2 h at 37°C. Next, compounds were loaded at different time intervals separately. Cells were washed with Hank's balanced salt solution (HBSS), then disrupted with 1× passive lysis buffer. Fluorescence was measured with a luminescence multi-label plate leader, and changes in fluorescence was imaged by fluorescence microscope at Burc Laboratory (Istanbul, Turkey).

IDE = target: T1, IDE (Homo sapiens, UniProt P14735); test: Degradation of fluorogenic substrate V by IDE; format: biochemical; settings: for increase of IDE-mediated substrate V degradation: 20 µM compound; for EC50: dose response, Sigmoidal Hill 4 parameter fit
T1 construct: made in house; host or cells: E. coli BL21
T1 sequence (P14735 1-1019): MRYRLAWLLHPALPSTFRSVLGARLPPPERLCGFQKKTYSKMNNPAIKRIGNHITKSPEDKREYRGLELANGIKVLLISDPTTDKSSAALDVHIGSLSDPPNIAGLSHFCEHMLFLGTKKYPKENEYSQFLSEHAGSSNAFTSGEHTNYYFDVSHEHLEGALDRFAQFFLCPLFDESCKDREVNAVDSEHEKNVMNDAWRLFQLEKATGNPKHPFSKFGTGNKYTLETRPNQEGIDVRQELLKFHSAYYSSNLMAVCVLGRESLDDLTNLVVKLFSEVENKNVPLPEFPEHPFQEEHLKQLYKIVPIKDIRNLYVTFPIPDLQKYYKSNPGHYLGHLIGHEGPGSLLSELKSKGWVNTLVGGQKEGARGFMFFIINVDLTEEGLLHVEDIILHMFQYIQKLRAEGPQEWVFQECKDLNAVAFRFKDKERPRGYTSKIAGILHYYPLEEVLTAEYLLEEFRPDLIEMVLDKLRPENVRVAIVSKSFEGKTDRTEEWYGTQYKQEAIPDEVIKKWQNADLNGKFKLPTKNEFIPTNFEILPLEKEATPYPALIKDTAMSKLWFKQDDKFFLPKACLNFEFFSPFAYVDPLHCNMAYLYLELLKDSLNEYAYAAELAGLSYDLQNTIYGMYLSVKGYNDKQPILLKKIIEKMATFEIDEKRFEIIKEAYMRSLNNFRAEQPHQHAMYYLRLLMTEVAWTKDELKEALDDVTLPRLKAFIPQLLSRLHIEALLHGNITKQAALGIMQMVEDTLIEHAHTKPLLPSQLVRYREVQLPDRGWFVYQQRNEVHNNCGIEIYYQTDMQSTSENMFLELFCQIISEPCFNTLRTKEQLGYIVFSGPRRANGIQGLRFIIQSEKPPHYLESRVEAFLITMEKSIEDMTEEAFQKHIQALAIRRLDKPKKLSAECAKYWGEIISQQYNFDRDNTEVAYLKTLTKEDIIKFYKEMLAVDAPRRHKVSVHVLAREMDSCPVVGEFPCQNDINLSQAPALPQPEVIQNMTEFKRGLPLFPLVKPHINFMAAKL
Procedure: The 10 compounds given in Table 1 were subjected to further characterization and their effect was measured on the proteolytic activity of IDE using different substrates. Initially, activity assays were carried out at fixed 20 µM concentrations for all molecules to identify the effect of those compounds on IDE activity. IDE activity was quantified by monitoring the change in fluorescence for the proteolysis of fluorogenic-substrate V, FITC- insulin-bound antibody, and FAβB by recombinant human IDE purified from E.coli BL21 [6], [18], [19]. […] Also, D6 increased the amyloid-β degradation by 20% (Fig. S1C). Further, D10 enhanced IDE-mediated FITC-insulin-mAb and substrate V degradation by 290% and 65%, respectively (Fig. S1A, B). Next, an EC50 value of each molecule that enhanced IDE activity was determined with a dose response assay, where specific activity of IDE was measured with different concentrations of the lead compounds and then the plot was fit to Sigmoidal Hill-4 parameter equation. […] EC50 value for D3 on insulin degradation was approximately measured as 20 µM (Fig. S2C), whereas EC50 value for D6 on amyloid-β degradation was 2 µM (Fig. S2D). […] Among all these four compounds, D10 seems to be the potent activator of IDE, when proteolysis of insulin is considered.
To assess the utility of these novel compounds as chemical regulators for IDE activity, we used fluorescence assay with fluorogenic substrate V (7-methoxycoumarin-4-yl-acetyl-NPPGFSAFK-2, 4-dinitrophenyl). Reaction was carried out in the presence of 105 µl of 10 µl of 40 µM substrate V; 10 µl of 0.02 mg/ml of IDE in 83 µl of 30 mM KH2PO4 at pH of 7.3, and various concentrations (0–35 µM) compounds and also with various time intervals (0–4 hours). The reaction mixture was incubated at 37°C for 2.5 h. The hydrolysis of substrate V was monitored using a Tecan Safire2 microplate reader with excitation and emission wavelengths set at 300 and 395 nm, respectively.
The effect of the lead compounds on the initial rate of proteolysis of IDE was determined by measurement in fluorescence with time both in the presence and absence of the lead compounds. The kinetic data for IDE-mediated insulin, substrate V and amyloid-β degradation were plotted and fitted using SigmaPlot software (Sigmoidal, Hill, 4 parameter). For the initial rate calculations, kinetic data were fitted using SigmaPlot software (Hyperbola; Single Rectangular I, 3 Parameter).

Structure (SMILES) | increase in magnitude of IDE activity for insulin degradation in HeLa cells (HeLa cells) [%] | permeability through cell membrane (HeLa cells) | increase of IDE-mediated substrate V degradation (IDE) | EC50 (IDE) [µM] | increase of initial rate of substrate V degradation (IDE; presence vs absence of compound)
COc1ccc(C2C(C(=O)Nc3ccccc3)=C(C)N=c3sc(=Cc4cn(C)nc4C)c(=O)n32)cc1 (stereo not drawn) [Compound D3] | ~65 | permeable through cell membrane | – | – | –
Nc1c(C(=O)Nc2ccccc2F)c2ccccn2c1C(=O)c1ccc2c(c1)CCCC2 [Compound D4] | – | – | 36% | 7 | –
Cc1nn(-c2ccccc2)c2nc(-c3cccc([N+](=O)[O-])c3)n3c4ccccc4nc3c2c1=O [Compound D10] | ~240 | permeable through cell membrane | 65% and 60% | 13 | about 2 fold
